{
  "source": "paper PMC7725785",
  "about": "“TRIB3 promotes MYC-associated lymphoma development through suppression of UBE3B-mediated MYC degradation” (Nature Communications, 2020)",
  "key": {"FL^T174 PDX": {"test_system": "FL^T174 PDX", "experiment": "PDX model tumor growth and weight, FL T174", "type": "in vivo, human", "conditions": "result in words", "procedure": "(§1) Four 5-week-old male NSG mice were implanted subcutaneously with 200 μl of a 1:1 mixture of Matrigel® Basement Membrane Matrix High Concentration (Corning, 354230) and minced fresh tumor fragments resected from lymphoma patients. Approximately 3–4 weeks following implantation, the first-generation mice (G1) were killed, and tumor masses were isolated. The tumor cells were tested for human CD19 (BCL) or CD3 expression (T cell lymphoma), and the remaining tumor mass was cut into 3-mm^3 sections and passaged into 4–5 NSG mice as the second generation (G2). After stable passage of the third generation (G3), the tumor mass of the fourth generation (G4) was equally cut into 3-mm^3 pieces and then passaged subcutaneously into 30–50 NSG mice (100 μl of a 1:2 mixture of Matrigel and tumor tissue) for in vivo treatment (6–8 mice per group, dependent on the experimental drug treatment). During and after treatment with the vehicle control or the indicated agent, tumor burden was evaluated by measuring the tumor volume to determine the therapeutic efficacy in the PDX models. […]\n(§2) To evaluate the survival rate, these mice were monitored for 8 months (Myc^Eμ mice). […] During the indicated treatments, tumor burden was evaluated by measuring the tumor volume to determine the therapeutic efficacy in the PDX models."}, "TRIB3-MYC interaction": {"test_system": "TRIB3-MYC interaction", "experiment": "SIM imaging and Co-IP of the TRIB3-MYC interaction in Raji cells", "type": "cell-based, human", "conditions": "SIM (30 min) and Co-IP (4 μM, six hours), versus PCON, result in words", "procedure": "Co-IP experiments were performed as described previously. Briefly, cells were collected and lysed for 30 min on ice. Soluble lysates were incubated with the indicated antibodies at 4 °C overnight, followed by incubation with Protein A/G Plus-Agarose (Santa Cruz Biotechnology, TX, USA) at 4 °C for 2 h. Soluble lysates were incubated with the indicated Anti-Myc magnetic beads (Bimake.com, B26302), Anti-Flag Affinity Gel (Bimake.com, B23102) or Anti-HA Affinity Gel (Bimake.com, B23302) at 4 °C overnight. Immunocomplexes were separated from the beads and then boiled for 10 min. The precipitated proteins were subjected to SDS-PAGE and blotted with specific antibodies. For immunoblotting assays, proteins were extracted from cells, spleens, or lymphoma tissues using RIPA buffer (Cell Signaling Technology, MA, USA). A BCA Protein Assay Kit was used to determine protein concentrations. Protein extracts were separated by SDS-PAGE, transferred onto PVDF membranes, and subjected to immunoblot analysis. Western blot images were captured by a Tanon 5200 chemiluminescent imaging system (Tanon, Shanghai, […]). Human lymphoma and benign LN paraffin tissue microarrays were purchased from US Biomax (LM482a).\nCells (~20,000) were grown on coverslips and fixed with formalin after the indicated treatment. […]"}, "DLBCL^T64 PDX": {"test_system": "DLBCL^T64 PDX", "experiment": "PDX model tumor growth and weight, DLBCL T64", "type": "in vivo, human", "conditions": "result in words", "procedure": "as §1, §2"}},
  "data": [
    {"sequence": "HLYVSPWGGKRREQLKHKLEQLR [PCM4, fused peptide generated by linking CM4 to a cell-penetrating peptide]", "values": [
      {"measurement": "growth and weights of tumors, combination of PCM4 and DOX", "setting": "FL^T174 PDX; PDX T174 (high TRIB3 and MYC expression), PCM4 5 mg/kg and DOX 2 mg/kg", "value": "further decreased the growth and weights of tumors"},
      {"measurement": "tumor growth of PDX", "setting": "FL^T174 PDX; PDX T174, NSG mice, PCM4 5 mg/kg i.v. three times a week", "value": "inhibited the tumor growth"},
      {"measurement": "colocalization and interaction of TRIB3 with MYC in lymphoma cells", "setting": "TRIB3-MYC interaction", "value": "inhibited the colocalization and interaction of TRIB3 with MYC"},
      {"measurement": "growth and weights of tumors, combination of PCM4 and DOX", "setting": "DLBCL^T64 PDX; PDX T64 (high TRIB3 and MYC expression), PCM4 5 mg/kg and DOX 2 mg/kg", "value": "further decreased the growth and weights of tumors"},
      {"measurement": "tumor growth of PDX", "setting": "DLBCL^T64 PDX; PDX T64, NSG mice, PCM4 5 mg/kg i.v. three times a week", "value": "inhibited the tumor growth"}
    ]}
  ]
}
